Assay results: PMC3429506, “Screening for Novel LRRK2 Inhibitors Using a High-Throughput TR-FRET Cellular Assay for LRRK2 Ser935 Phosphorylation” (PLoS ONE, 2012)

Assays:
[1] = biological target: T1, LRRK2 G2019S (Homo sapiens, UniProt Q5S007, G2019S); assay: In vitro biochemical LRRK2 TR-FRET activity assay
Experimental: The Biochemical LRRK2 TR-FRET activity assay was performed according to the manufacture recommended assay protocol (Life Technologies). […] After incubation at room temperature for 1 hour, the kinase reactions were stopped by addition of 10 µL of 20 mM EDTA and 4 nM Tb-anti-pERM (pLRRKtide) antibody in TR-FRET dilution buffer (Life Technologies). After a 30 minute incubation at room temperature, TR-FRET measurements were obtained on a BMG PHERAstar plate reader using LanthaScreen® filters and settings. A 16 point, 2-fold dilution series of each compound was tested in triplicate at each concentration and assays were also performed in triplicate.

[2] = in vitro; details: human
[3] = biological target: T2, LRRK2 wild-type (Homo sapiens, UniProt Q5S007); assay: TR-FRET cellular assay for LRRK2 Ser935 phosphorylation, U-2 OS cells, BacMam LRRK2-GFP wild-type; assay type: cell-based; parameters: This high-throughput assay utilizes cells expressing full-length human LRRK2 with a C-terminal GFP tag (LRRK2-GFP); host or cells: U-2 OS cells transduced with BacMam; details: WT, +/- SD, three independent experiments, * = partial inhibition, read-out: IC50, TR-FRET cell-based assay for Ser935 phosphorylation of LRRK2
Experimental: (§1) U-2 OS cells are maintained in growth medium (McCoy’s 5A supplemented with 10% dialyzed FBS (dFBS), 10 mM HEPES, 0.1 mM NEAA, 1 mM Sodium Pyruvate, and 100 U/mL Penicillin/100 µg/mL Streptomycin). HEK293T cells are maintained in DMEM with 10% dFBS, 10 mM HEPES, 0.1 mM NEAA and 100 U/mL Penicillin/100 µg/mL Streptomycin. SH-SY5Y cells are maintained in DMEM/F-12 medium supplemented with 10% dFBS and 100 U/mL Penicillin/100 µg/mL Streptomycin. […] GIBCO® human neural stem cells (hNSCs) were propagated as an adherent culture in StemPro® NSC SFM according to the manufacturer’s recommended protocol (Life Technologies). For BacMam transduction of U-2 OS and HEK293T, cells were harvested, mixed with various amounts of BacMam LRRK2-GFP reagent (v/v) and plated onto 6-well plates. […] Cells were assayed in 384-well format (∼20,000 cells/well) 48 hours post-transduction as above.
(§2) Transduced cells in the 384-well assay plate were incubated with indicated inhibitors (5X, 5 µL/well) for 60 to 90 minutes. During this time, 6 X lysis buffer (Life Technologies) was supplemented with 30 nM Tb-labeled anti-LRRK2 pSer935 antibody and both protease and phosphatase inhibitor cocktails (Sigma). The complete 6 X lysis buffer was added to each well (5 µL/well) and the plates were incubated at room temperature in the dark for 2 hours. […] A sigmoidal dose-response equation with varying slope was used to fit the data and generate IC50 values. Z′-factor values were calculated as: Z′-factor = 1 - [(3 × stdevno virus +3 × stdevmaxvirus)/(avgmaxvirus – avgno-virus)]. The IC50 values reported in Table 1 are the averaged numbers from three independent experiments.

[4] = biological target: T2, LRRK2 wild-type; assay: TR-FRET cellular assay for LRRK2 Ser935 phosphorylation, SH-SY5Y cells, BacMam LRRK2-GFP wild-type; assay type: cell-based; parameters: This high-throughput assay utilizes cells expressing full-length human LRRK2 with a C-terminal GFP tag (LRRK2-GFP); host or cells: SH-SY5Y cells transduced with BacMam; details: WT, +/- SD, three independent experiments, * = partial inhibition, read-out: IC50, TR-FRET cell-based assay for Ser935 phosphorylation of LRRK2
Experimental: as §1, §2

[5] = biological target: T1, LRRK2 G2019S; assay: TR-FRET cellular assay for LRRK2 Ser935 phosphorylation, SH-SY5Y cells, BacMam LRRK2-GFP G2019S (incl. Tocriscreen Mini library screen and follow-up); assay type: cell-based; parameters: This high-throughput assay utilizes cells expressing full-length human LRRK2 with a C-terminal GFP tag (LRRK2-GFP); host or cells: SH-SY5Y cells transduced with BacMam; details: for IC50: three independent experiments
Experimental: as §1, §2
40 nL of 10 mM Tocris library compounds in DMSO were dispensed into each well of the assay plate by the ECHO system. Equal volumes of DMSO were dispensed into the control wells. Cells were incubated with compounds for 90 to 120 min prior to cell lysis and detection as described above. The percent inhibition is calculated as: [(average emission ratios of DMSO control wells – average emission ratios of compound wells)/(average emission ratios of DMSO control wells – average emission ratios of LRRK2-IN-1 treated wells)] * 100. For the dose-response follow-up studies, fresh compound DMSO stock solutions were prepared from powder. […] Z′-factor value was calculated as: Z′-factor = 1 - [(3 × stdevLRRK2-IN-1+3 × stdevDMSO)/(avgDMSO – avgLRRK2-IN-1)]. The IC50 values reported in Table 2 are the averaged numbers from three independent experiments for both cellular and biochemical TR-FRET assays and one representative result of two independent experiments for the cytotoxicity assay.

[6] = biological target: T2, LRRK2 wild-type; assay: TR-FRET cellular assay for LRRK2 Ser935 phosphorylation, HEK293T cells, BacMam LRRK2-GFP wild-type; parameters: This high-throughput assay utilizes cells expressing full-length human LRRK2 with a C-terminal GFP tag (LRRK2-GFP); host or cells: HEK293T cells transduced with BacMam; details: WT, +/- SD, three independent experiments, * = partial inhibition, read-out: IC50, TR-FRET cell-based assay for Ser935 phosphorylation of LRRK2
Experimental: as §1, §2

[7] = biological target: T1, LRRK2 G2019S; assay: TR-FRET cellular assay for LRRK2 Ser935 phosphorylation, HEK293T cells, BacMam LRRK2-GFP G2019S; parameters: This high-throughput assay utilizes cells expressing full-length human LRRK2 with a C-terminal GFP tag (LRRK2-GFP); host or cells: HEK293T cells transduced with BacMam; details: +/- SD, three independent experiments, * = partial inhibition, read-out: IC50, TR-FRET cell-based assay for Ser935 phosphorylation of LRRK2
Experimental: as §1, §2

[8] = biological target: T1, LRRK2 G2019S; assay: TR-FRET cellular assay for LRRK2 Ser935 phosphorylation, U-2 OS cells, BacMam LRRK2-GFP G2019S; assay type: cell-based; parameters: This high-throughput assay utilizes cells expressing full-length human LRRK2 with a C-terminal GFP tag (LRRK2-GFP); host or cells: U-2 OS, SH-SY5Y, HEK293T cells or human neural stem cells transduced with BacMam; details: G2019S, +/- SD, three independent experiments, * = partial inhibition, read-out: IC50, TR-FRET cell-based assay for Ser935 phosphorylation of LRRK2
Experimental: as §1, §2

T2 sequence (Q5S007 whole entry): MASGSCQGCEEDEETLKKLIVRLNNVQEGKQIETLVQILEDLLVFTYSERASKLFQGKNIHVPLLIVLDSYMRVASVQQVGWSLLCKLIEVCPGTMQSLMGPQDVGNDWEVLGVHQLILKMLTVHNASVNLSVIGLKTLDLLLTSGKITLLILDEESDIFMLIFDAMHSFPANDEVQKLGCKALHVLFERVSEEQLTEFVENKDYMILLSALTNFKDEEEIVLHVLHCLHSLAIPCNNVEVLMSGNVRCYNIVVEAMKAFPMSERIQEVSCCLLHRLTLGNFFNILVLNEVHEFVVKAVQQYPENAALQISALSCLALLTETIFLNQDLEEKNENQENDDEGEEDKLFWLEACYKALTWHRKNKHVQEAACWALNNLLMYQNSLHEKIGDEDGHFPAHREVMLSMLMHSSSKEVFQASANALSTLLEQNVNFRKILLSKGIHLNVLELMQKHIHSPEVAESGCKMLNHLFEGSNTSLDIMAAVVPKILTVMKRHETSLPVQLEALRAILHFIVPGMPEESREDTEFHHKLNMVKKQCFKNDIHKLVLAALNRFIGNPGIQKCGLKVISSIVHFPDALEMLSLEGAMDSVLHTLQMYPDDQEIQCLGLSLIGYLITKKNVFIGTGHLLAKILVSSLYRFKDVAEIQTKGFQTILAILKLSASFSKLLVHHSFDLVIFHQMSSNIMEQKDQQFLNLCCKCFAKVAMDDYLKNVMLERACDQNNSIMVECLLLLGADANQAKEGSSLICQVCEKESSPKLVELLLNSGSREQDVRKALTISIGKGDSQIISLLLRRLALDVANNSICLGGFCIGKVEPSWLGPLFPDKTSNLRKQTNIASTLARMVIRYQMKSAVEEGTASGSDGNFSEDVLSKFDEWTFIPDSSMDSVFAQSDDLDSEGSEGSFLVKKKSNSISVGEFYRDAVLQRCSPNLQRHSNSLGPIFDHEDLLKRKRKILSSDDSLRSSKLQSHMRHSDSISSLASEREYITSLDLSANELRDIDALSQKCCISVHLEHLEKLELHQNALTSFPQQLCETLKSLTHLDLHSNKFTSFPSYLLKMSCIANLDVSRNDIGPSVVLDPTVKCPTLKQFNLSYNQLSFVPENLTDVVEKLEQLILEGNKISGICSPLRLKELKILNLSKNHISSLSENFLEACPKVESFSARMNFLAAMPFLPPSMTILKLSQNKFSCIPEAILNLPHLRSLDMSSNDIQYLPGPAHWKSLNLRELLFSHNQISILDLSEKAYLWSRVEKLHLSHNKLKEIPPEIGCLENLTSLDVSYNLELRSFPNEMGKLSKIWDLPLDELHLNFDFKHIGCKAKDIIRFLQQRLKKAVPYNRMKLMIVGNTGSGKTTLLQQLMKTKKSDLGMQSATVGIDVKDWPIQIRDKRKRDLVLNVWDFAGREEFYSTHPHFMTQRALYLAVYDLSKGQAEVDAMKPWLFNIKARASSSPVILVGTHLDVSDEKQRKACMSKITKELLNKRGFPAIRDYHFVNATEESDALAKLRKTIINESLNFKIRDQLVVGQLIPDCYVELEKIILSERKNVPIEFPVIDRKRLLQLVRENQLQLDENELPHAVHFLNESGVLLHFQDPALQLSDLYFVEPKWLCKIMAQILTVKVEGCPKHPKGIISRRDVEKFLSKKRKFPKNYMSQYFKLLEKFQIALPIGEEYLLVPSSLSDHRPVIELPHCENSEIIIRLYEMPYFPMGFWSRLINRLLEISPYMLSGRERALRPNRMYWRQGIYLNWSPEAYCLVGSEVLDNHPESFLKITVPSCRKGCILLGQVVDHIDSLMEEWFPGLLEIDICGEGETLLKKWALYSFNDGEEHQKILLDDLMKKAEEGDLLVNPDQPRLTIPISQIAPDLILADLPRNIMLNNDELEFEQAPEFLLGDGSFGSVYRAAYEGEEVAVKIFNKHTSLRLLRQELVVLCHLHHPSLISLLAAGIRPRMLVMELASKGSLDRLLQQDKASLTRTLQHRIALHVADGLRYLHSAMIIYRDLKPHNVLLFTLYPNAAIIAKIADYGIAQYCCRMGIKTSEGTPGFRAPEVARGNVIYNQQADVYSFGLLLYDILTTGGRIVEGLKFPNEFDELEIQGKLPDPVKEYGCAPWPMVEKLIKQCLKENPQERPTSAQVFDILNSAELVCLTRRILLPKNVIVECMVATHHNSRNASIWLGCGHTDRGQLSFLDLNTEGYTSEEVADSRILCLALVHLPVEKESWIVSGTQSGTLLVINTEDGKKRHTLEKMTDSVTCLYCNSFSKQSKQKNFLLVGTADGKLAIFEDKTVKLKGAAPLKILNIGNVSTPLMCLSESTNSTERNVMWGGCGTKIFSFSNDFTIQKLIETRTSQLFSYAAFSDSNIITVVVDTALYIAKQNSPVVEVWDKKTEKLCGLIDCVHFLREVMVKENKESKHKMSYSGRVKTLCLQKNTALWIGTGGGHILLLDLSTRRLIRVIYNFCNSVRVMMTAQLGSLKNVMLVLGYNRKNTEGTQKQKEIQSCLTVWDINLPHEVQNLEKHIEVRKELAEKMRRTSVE
T1 sequence (Q5S007 whole entry G2019S): as the sequence (Q5S007 whole entry) above, with G2019S counted along it

## O=Nc1c(-c2c(O)[nH]c3ccccc23)[nH]c2ccccc12 [Indirubin-3-monoxime, Indirubin-3′-monoxime]
[1]; LRRK2 G2019S, ATP 134 µM (Km,app), LRRKtide substrate, three independent experiments, read-out: Biochemical LRRK2 assay IC50 +/- SD
  IC50: > 10 µM
[1]; result in words
  effect on LRRK2 activity in vitro: did not repress LRRK2 activity in vitro
[2]
  IC50: > 20 µM
[3]
  IC50: 3.78 µM
[4]
  IC50: > 10 µM
[5]; SH-SY5Y, G2019S, +/- SD, * = partial inhibition, read-out: IC50, TR-FRET cell-based assay for Ser935 phosphorylation of LRRK2
  IC50: 6.15 µM
[5]; SH-SY5Y, Tocriscreen Mini library screen, 20 µM, SH-SY5Y G2019S, relative to LRRK2-IN-1 control, read-out: %Inhibition Initial screen
  inhibition at 20 µM: 63.5%
[5]; dose-response follow-up, SH-SY5Y G2019S, 90 min
  Cellular TR-FRET Assay Max % Inhibition: 64%
[5]; dose-response follow-up, SH-SY5Y G2019S, read-out: Cellular TR-FRET Assay IC50 +/-SD
  IC50: 4.4 µM
[6]
  IC50: 3.68 µM
[7]
  IC50: 2.78 µM
[8]
  IC50: 1.93 µM
